{
  "source": "patent US20100160351A1",
  "about": "“PHARMACEUTICAL COMPOSITIONS AND METHODS FOR TREATING HYPERURICEMIA AND RELATED DISORDERS” (NUON THERAPEUTICS, INC., priority 2008, published 2010)",
  "system": "monosodium urate (MSU) crystal-induced air pouch inflammation",
  "assay": "Air Pouch Model 1: MSU crystal air pouch, rodent model of gout",
  "assay_type": "in vivo, male Sprague-Dawley rats",
  "details": "for Average Exudate Volume / Average Plasma Extravasation, OD620 nm / Total WBC in Sample / WBC: +MSU, 4 h",
  "procedure": "The objective of this study was to evaluate the anti-inflammatory affects of tranilast versus a clinically active treatment for gout, colchicine, as well as a clinically active non-steroidal antiinflammatory drug, indomethacin. This evaluation was carried out in male Sprague-Dawley rats in a rodent model of gout. The animals were injected subcutaneously with 20 ml of sterile air, followed three days later by a supplemental injection with 20 ml of sterile air. Six days after the initial sterile air injection, the rats were injected intravenously with Evan's Blue and pretreated for thirty minutes with either a subcutaneous injection of colchicine (1 mg/kg) or indomethacin (5 mg/kg) or oral administration with either 200 mg/kg or 400 mg/kg of tranilast. After the pretreatment period, the rats were injected with 150 mg of monosodium urate (MSU) crystals (10 mg·ml) into the air pouch. Four hours later, the air pouch was injected with 5 ml heparinized saline and the entire contents of the air pouch removed, recording the total volume. The air pouch contents were evaluated for plasma extravasation and total white blood cell (WBC) count.\n(§1) On day 0 the rats were anesthetized in a biological cabinet, the nape of the neck was cleansed with 70% isopropanol followed by iodine tincture (VEDCO, lot L021976). Twenty ml sterile (0.22 μm, Fisher Scientific, Cat. 09-720-3, lot R5SN25683) air was injected subcutaneously using a 23 G×2 inch needle fixed to a 20 ml syringe. The rats were returned to routine housing. No adverse reactions were observed.\nas §1, with “day 3” for “day 0”\nOn day 6 the rats were weighed (Mettler, Model PE3000, SN: F69474) and sorted into six treatment groups of ten animals each, based upon average weight. The animals were either dosed subcutaneously with 1 ml/kg colchicine or indomethacin, or orally with either 4 ml/kg or 8 ml/kg tranilast, or 8 ml/kg vehicle. Immediately after test material administration, the rats were intravenously injected with 2 ml/kg Evans Blue.\nThirty minutes after test material administration, the rats were anesthetized and five groups were injected into the air pouch with 15 ml MSU using an 18 G×1 inch needle fitted to a 20 ml syringe. The sixth group was injected with 15 ml saline. The rats were returned to their cages, no adverse affects were observed.\nFour hours after MSU injection, the rats were anesthetized and 5 ml 10 U/ml heparinized saline was injected into the air pouch. The air pouch was gently massaged, the contents immediately removed using a 14 G×1 inch needle fitted to a 6 ml syringe, and the exudate volume recorded. An aliquot of the exudate was transferred to heparin-treated microtainer tubes (Becton Dickinson, Cat. 365958, lot 8093666, exp. June 09) for white blood cell (WBC) counting. The remainder of the exudate was centrifuged (Hermle Labrotechnik, Model Z200A, SN: 44060036), the supernatants removed and evaluated at OD620nm (Spectronic Unicam, Model 4000 1/4, SN: 3SGD003006) for plasma extravasation.",
  "key": {"[1]": {"details": "Group 4: tranilast 200 mg/kg oral"}, "[2]": {"details": "Group 5: tranilast 400 mg/kg oral"}, "[3]": {"details": "oral tranilast 30 min before MSU, regardless of dose (200 or 400 mg/kg)"}},
  "data": [
    {"smiles": "COc1ccc(/C=C/C(=O)Nc2ccccc2C(=O)O)cc1OC", "note": "[Tranilast, 2-[[3-(3,4-dimethoxyphenyl)-1-oxo-2-propenyl]amino]benzoic acid]", "values": [
      {"measurement": "Average Exudate Volume", "setting": "[1]", "value": 6.5, "unit": "mL"},
      {"measurement": "Average Plasma Extravasation, OD620 nm", "setting": "[1]", "value": 0.697},
      {"measurement": "Total WBC in Sample", "setting": "[1]", "value": 15925556},
      {"measurement": "WBC", "setting": "[1]", "value": 2524444, "unit": "cells/ml"},
      {"measurement": "Average Exudate Volume", "setting": "[2]", "value": 5.3, "unit": "mL"},
      {"measurement": "Average Plasma Extravasation, OD620 nm", "setting": "[2]", "value": 0.626},
      {"measurement": "Total WBC in Sample", "setting": "[2]", "value": 15162222},
      {"measurement": "WBC", "setting": "[2]", "value": 3144444, "unit": "cells/ml"},
      {"measurement": "inhibition of plasma extravasation", "setting": "[3]", "value": 60, "unit": "%"},
      {"measurement": "inhibition of white blood cell infiltration", "setting": "[3]", "value": 95, "unit": "%"}
    ]}
  ]
}
